Reference: patent publication US12668610B2, “Compounds for drug delivery across blood-brain barrier” (University of Houston System, priority 2020, dated 2026)
Numbered stars: 1 amine (or outer) side, 2 acyl side, 3 side chain; on linkers, the order of the positions; unused ones are H or OH. Square brackets hold non-standard residues; d marks the D form. Peptide text beside a SMILES is read from it. N((CH2)3OiPr)Gly = CC(C)OCCCNCC(=O)O; X1 = CC(c1ccccc1)N(CC(=O)[*:2])[*:1]; Nleu = CC(C)CNCC(=O)O; Nlys = NCCCCNCC(=O)O; Nme = COCCNCC(=O)O

Tests used:
[1] = test system: transferrin receptor positive HeLa cells; assay: Validation of on-bead two-color binding with resynthesized compound on TentaGel beads; format: cell-based, human; conditions: 1.0 hour at room temperature, fluorescence microscope
Protocol: The on-bead two-color combinatorial cell-screening was validated by resynthesizing the compounds on tentagel beads and incubating them with transferrin receptor positive HeLa cells and transferrin receptor negative Hela cells separately as well as a mixture of these cells. The beads specifically bound with the transferrin receptor positive HeLa cells. Results are shown in FIG. 3, with the cells shown on the left column and the beads containing TRBP6 after incubation with the cells shown in the right column.
Nearly 50,000 peptoid library beads were washed two times in DMEM medium containing 10% FBS (media) and then incubated in 1.0 ml (DMEM+10% FBS) for 1.0 hour in a polypropylene tube. Transferrin receptor positive HeLa cells and transferrin receptor negative HeLa cells were removed from culture plates with GIBCO enzyme free cell dissociation buffer 2.0 ml per plate for 20 minutes at 37° C. Cells were washed and suspended in DMEM+10% FBS media. Cells were counted and distributed in 1.5 ml microcentrifuge tubes with 1.0×10^6 cells in 1.0 ml of media. Then the cell labeling procedure was conducted as follows: 1.0 μl each of Qtracker reagent A and B were mixed in a 1.5 ml microcentrifuged tubes and incubated for 5.0 minutes at room temperature. […] Labeled cells were visualized with long-pass filter of BX-51 fluorescence microscope (Olympus, PA) with a color camera. […]

[2] = target: T1, transferrin receptor (Homo sapiens, UniProt P02786); assay: In vitro pull-down assay with compound-conjugated beads and western blot; format: binding; conditions: lysates of transferrin receptor positive or negative HeLa cells, compound-conjugated beads, 4° C. overnight, western blot anti-hTfR
T1 construct: Cell lysates from HeLa cells with transferrin receptor expression or transferrin receptor knockdown were extracted using RIPA buffer; endogenous in cells; host or cells: HeLa (ATCC)
Protocol: The binding of three exemplary compounds to the transferrin receptor was confirmed in a pull-down assay. Cell lysates from transferrin receptor positive or negative HeLa cells were extracted using RIPA buffer, and subsequently incubated with TRBP3, TRBP5, or TRBP6 conjugated beads at 4° C. overnight. The beads were then washed with RIPA buffer for 3 times, and the binding proteins were eluted with 1% SDS. The yielded lysates were then applied onto 10% SDS-PAGE gel and subjected to western blotting analysis with antibody against transferrin receptor.
Cell lysates from HeLa cells with transferrin receptor expression or transferrin receptor knockdown were extracted using RIPA buffer (Alfa Aesar) supplemented with protease inhibitors (Roche), and subsequently incubated with TRBP6, TRBP3, and TRBP5 conjugated beads at 4° C. overnight. The beads were then washed with RIPA buffer for 3 times, and the binding proteins were eluted with 1% SDS at 95° C. for 5 mins. The yielded lysates were then mixed with 4× Laemmli Sample Buffer (loading buffer) (Bio-Rad). […]
Cells were lysed in RIPA buffer (1% NP-40, 0.5% sodium deoxycholate, 0.1% SDS in PBS). […] Protein concentration was determined by Bio-Rad DC protein assay (Bio-Rad). […] Signals of targeted proteins were detected by the Immun-Star HRP peroxide Luminol/Enhancer (Bio-Rad) and recorded on ChemiDoc Touch Imaging System (Bio-Rad). […]

[3] = Solubility in water by titration; format: physicochemical; conditions: deionised water; DI water
Protocol: Solubility of TRBP-6 peptoid was determined by titration. Briefly, a precise amount (5 mg) of TRBP-6 was measured in a transparent 1.5 ml Eppendorf tube. DI water was added dropwise (˜5 μl/drop) into the tube until the solids were completely dissolved and the solution was clear. Solubility was calculated as the ratio of quantity of peptoid and the total volume of DI water. […] The solubility of TRBP6 in water is shown below.

[4] = Stability in PBS pH 7.4 (HPLC); format: physicochemical; conditions: 37° C., 350 μg/ml
Protocol: (§1) HPLC Analysis. RP-HPLC was conducted on an LC-20A liquid chromatographic system (Shimadzu, Japan). In detail, the HPLC system consisted of a Shimadzu LC-20AD solvent delivery pump, a SIL-20A auto-sampler, and a Shimadzu SPD-M20A UV/Vis detector. The TRBP-6 peptoid was analyzed using a Phenomenex® HPLC C18 column (250×4.6 mm, 5 μm) at room temperature. The mobile phase was composed of solvent A (0.1% TFA in water) and solvent B (0.1% TFA in acetonitrile, TFA: trifluoroacetic acid). An aliquot of 10 μl of TRBP-6 peptoid solution (350 μg/ml in ACN:H2O, 1:1) was injected into HPLC system. An isocratic method with flow rate of 1 ml/min was applied in 30% B for 15 min for TRBP-6. The detection wavelength was set to 220 nm. The data was acquired and processed with LabSolutions version 5.92. HPLC chromatograms for TRBP-6 are shown in FIG. 10, namely (A) PDA Chromatogram, and (B) PDA Spectrum. FIG. 10(A) is a RP-HPLC chromatogram of TRBP-6 (retention time tR=4.904 min) obtained by above HPLC method to illustrate the purity of the synthesized TRBP-6. FIG. 10(B) is a plot of UV absorbance spectrum of TRBP-6 obtained from injecting TRBP-6 into the HPLC column to show the wavelength of maximum UV absorbance of TRBP-6 (λmax=216 nm). Stability in PBS pH 7.4.
TRBP-6 peptoid was diluted with PBS pH 7.4 to 350 μg/ml. The solution was incubated in the water bath at 37° C. with gentle shaking. The aliquots (50 μl) were withdrawn from the TRBP-6 solution at different time intervals (0, 1, 3, 6, 9, 24 h). At each time point, 10 μl of solution was injected into HPLC for analysis. To examine the reproducibility, the experiments were carried out in triplicate.

[5] = Stability in human plasma (HPLC); format: in vitro ADME; conditions: 37° C.
Protocol: as §1
TRBP-6 peptoid solution with a concentration of 5 mg/ml in PBS was diluted to 1.4 mg/ml by human plasma. After incubation at 37° C. in human plasma for 0, 1, 3, 6, 9 and 24 h, 50 μl of the mixture was quenched with 150 μl of cold acetonitrile and centrifuged at […]×20 min. The supernatant (100 μl) was detected by HPLC. The assay was performed in triplicates.

[6] = In vivo biodistribution study of Cy5.5-labeled peptoids in CD-1 mice (IVIS imaging)
Protocol: The activity of these compounds to deliver Cy5.5 fluorescent dye into the brains of mice was investigated. […] The Cy5.5 labeled peptoids or Cy5.5-Ang peptide were injected intravenously to CD-1 mice (25 nmol/mouse, n=4 per compound) and imaged using IVIS imager. The mice were sacrificed at 30 minutes, the heart was perfused with 10 mL of PBS, blood and organs were collected for ex vivo imaging.
Biodistribution of Cy5.5-labeled peptoids and control Cy5.5-Ang was performed on healthy female CD-1 mice (6-8 weeks old, n=4 per group). Fluorescently labeled peptoids and Cy5.5-Ang were prepared in 100 μl saline (25 nmol of Cy5.5-TRBP in 100 μl saline per mouse) were injected intravenously via tail vein into mice. The whole body imaging of fluorescence signal was measured at 5, 15 and 30 min using the IVIS Spectrum in vivo imaging system (PerkinElmer). At 30 min, mice were euthanized and brain was perfused with 10 mL of 10% heparinized PBS at […] flow rate via left ventricle of mice. A small incision to the right atrium was made using iris scissors before perfusion. After brain perfusion, the vital organs (brain, heart, lung, liver, spleen also blood and plasma) were collected for ex vivo imaging. The fluorescence intensity was measured at wavelength with an excitation of 660 nm and maximum emission at 710 nm. The organ region of interest (ROI) was measured and analyzed using Living image software. Data of the experiments were expressed as mean±SD and analyzed by One-way ANOVA with Dunnett's multiple comparison test. The statistical analysis was done in Graphpad Prism (Graphpad Inc., version 7.04), the results were considered statistically significant if p<0.05.

T1 sequence (P02786 whole entry): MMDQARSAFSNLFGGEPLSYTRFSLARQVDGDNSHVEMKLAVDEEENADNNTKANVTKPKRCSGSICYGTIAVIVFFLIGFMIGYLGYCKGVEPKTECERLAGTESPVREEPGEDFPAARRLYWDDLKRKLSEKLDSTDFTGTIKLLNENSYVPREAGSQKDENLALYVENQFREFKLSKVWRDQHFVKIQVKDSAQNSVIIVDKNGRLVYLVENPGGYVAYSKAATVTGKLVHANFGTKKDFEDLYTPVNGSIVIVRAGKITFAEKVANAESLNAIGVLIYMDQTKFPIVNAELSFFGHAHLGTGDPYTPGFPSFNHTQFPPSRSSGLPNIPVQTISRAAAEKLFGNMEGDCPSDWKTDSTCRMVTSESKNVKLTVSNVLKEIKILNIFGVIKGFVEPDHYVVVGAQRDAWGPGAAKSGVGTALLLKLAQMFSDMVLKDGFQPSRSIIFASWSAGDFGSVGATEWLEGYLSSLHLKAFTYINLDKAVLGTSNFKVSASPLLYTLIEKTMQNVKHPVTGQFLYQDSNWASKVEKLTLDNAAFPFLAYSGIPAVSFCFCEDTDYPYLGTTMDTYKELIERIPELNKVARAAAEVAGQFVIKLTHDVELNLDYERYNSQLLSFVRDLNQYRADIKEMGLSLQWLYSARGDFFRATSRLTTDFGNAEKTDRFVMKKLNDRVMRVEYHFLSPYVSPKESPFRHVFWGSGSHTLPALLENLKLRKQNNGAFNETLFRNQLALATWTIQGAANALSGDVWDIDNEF

binding to the transferrin receptor in pull-down assay [2]: confirmed
solubility [3]: > 496 mg/mL
TRBP-6 amount remains (%) in PBS pH 7.4 ([4]; 0 h): 100.0 ± 2.4%
TRBP-6 amount remains (%) in PBS pH 7.4 ([4]; 1 h): 98.9 ± 6.5%
TRBP-6 amount remains (%) in PBS pH 7.4 ([4]; 3 h): 95.5 ± 3.3%
TRBP-6 amount remains (%) in PBS pH 7.4 ([4]; 6 h): 94.6 ± 2.3%
TRBP-6 amount remains (%) in PBS pH 7.4 ([4]; 9 h): 92.7 ± 0.2%
TRBP-6 amount remains (%) in PBS pH 7.4 ([4]; 24 h): 91.3 ± 3.8%
TRBP-6 amount remains (%) in human plasma ([5]; 0 h, 1.4 mg/ml): 100.0 ± 1.2%
stability (overall statement) ([5]; PBS pH 7.4 and human plasma, up to 24 h): excellent stability
remaining at 1 h, 1.4 mg/ml ([5]; human, human plasma, 1 h, 1.4 mg/ml, read-out: TRBP-6 amount remains (%) in human plasma): 99.5 ± 3.5%
remaining at 3 h, 1.4 mg/ml ([5]; human, human plasma, 3 h, 1.4 mg/ml, read-out: TRBP-6 amount remains (%) in human plasma): 94 ± 2.1%
remaining at 6 h, 1.4 mg/ml ([5]; human, human plasma, 6 h, 1.4 mg/ml, read-out: TRBP-6 amount remains (%) in human plasma): 93 ± 5.3%
remaining at 9 h, 1.4 mg/ml ([5]; human, human plasma, 9 h, 1.4 mg/ml, read-out: TRBP-6 amount remains (%) in human plasma): 92 ± 2.9%
remaining at 24 h, 1.4 mg/ml ([5]; human, human plasma, 24 h, 1.4 mg/ml, read-out: TRBP-6 amount remains (%) in human plasma): 90.3 ± 4.7%
SMILES: COCCN(CC(=O)NC(CCCCN)C(=O)NC(CCSC)C(N)=O)C(=O)CN(CC(C)C)C(=O)CN(C(=O)CN(CCCCN)C(=O)CN(CCCOC(C)C)C(=O)CNCCCCN)C(C)c1ccccc1 (stereo not shown) [TRBP6] (H-[Nlys][N((CH2)3OiPr)Gly][Nlys][X1][Nleu][Nme]KM-NH2; configuration not given here)
binding of beads to transferrin receptor positive (red) vs negative (green) HeLa cells [1]: only showed binding with red cells but not with green cells
efficacy of brain delivery compared with other compounds including Angiopep-2 (Ang) peptide ([6]; 25 nmol/mouse intravenously): much higher than other compounds
delivery of Cy5.5 into the brain ([6]; 25 nmol/mouse intravenously, imaging 5, 15, 30 min and ex vivo after perfusion): effectively delivered Cy5.5 into the brain
efficiency in brain delivery compared with other compounds including Ang peptide ([6]; 30 minutes after injection, 25 nmol/mouse i.v.): superior efficiency than other compounds
